Article PMC2222791, “Induction of the oxidative catabolism of retinoid acid in MCF-7 cells” (British Journal of Cancer, 1997)
“And” between values parts separate entries of the source, which are not always exact repeats. Equal entries are not always repeated. Where two headings read alike, the source gives them in different places. Starred links: 1 amine or outer side, 2 acyl side, 3 side chain; linkers in the order of their positions; H or OH if unused. Positions of bridges follow the written chain, without caps; N, C: chain ends. Non-standard residues stand in square brackets, D forms with d. Residues, ends and D or L forms follow the SMILES beside them. Chains are numbered I, II in the order given. Actinocin(9to1) = Cc1c2oc3c(C)ccc(C(=O)[*:1])c3nc-2c(C(=O)[*:2])c(N)c1=O; NMeV = CN[C@H](C(=O)O)C(C)C; Sar = CNCC(=O)O

How the values were obtained:
RARs = test system: RARs; design: method as in Duell et al, 1992; conditions: ref Duell et al, 1992; cited from earlier work
[1] = test system: all-trans-RA catabolism in MCF-7 cells; assay: Inhibition of induced all-trans-RA catabolism in MCF-7 cells; type: cell-based, human; conditions: for Inhibition of induced all-trans-RA catabolism, in words: induced MCF-7 cells, 10^-7 M [3H]all-trans-RA, CH55 up to 10 μM; for IC50: MCF-7 cells preincubated 24 h with 10^-6 M all-trans-RA, 10^-7 M [3H]all-trans-RA as substrate, mean ± s.d., three experiments in duplicate; for Activity in inhibiting all-trans-RA catabolism, times less than all-trans-RA: relative to all-trans-RA, from IC50 values of Table 2
[2] = test system: rat Dunning R3327G tumour homogenates; conditions: cited from earlier work
rat liver homogenates = conditions: cited from earlier work
[3] = test system: all-trans-RA catabolism in MCF-7 cells; assay: Induction of all-trans-RA catabolism in MCF-7 cells by preincubation with retinoids (microcolumn assay); conditions: for RA catabolism (% of control): 24 h preincubation
hamster liver microsomes = conditions: read-out: Km value of all-trans-RA catabolism, cited from earlier work
MCF-7 cells [4] = assay: Viability of MCF-7 cells after preincubation (trypan blue); conditions: 24 h preincubation, varying concentrations, results not shown
CRABP-II mRNA = assay: Northern blotting for CRABP mRNA in MCF-7 cells; type: cell-based, human
Protocol: (§1) British Journal of Cancer (1997) 75(8), 1098-1104 ? […] Quantification was performed by optical densitometric scanning. […] Data are shown as mean ? s.d.

[5] = test system: all-trans-RA catabolism in MCF-7 cells; assay: Enzyme characteristics of induced all-trans-RA catabolism (Michaelis-Menten, Lineweaver-Burk); type: cell-based, human; conditions: MCF-7 cells preincubated 24 h with 10^-6 M all-trans-RA; substrate 5 x 10^-9 to 10^-6 M [3H]all-trans-RA; overall formation of polar metabolites; read-out: Estimated Km value of induced all-trans-RA catabolism
Protocol: as §1

BA-HAN-IC = BA-HAN-IC cells; ref Ramp et al, 1994; cited from earlier work
MCF-7 cells [6] = test system: MCF-7 cells
[7] = test system: F9 embryonal carcinoma cells; design: method as in Willams and Napoli, 1985; conditions: ref Willams and Napoli, 1985; cited from earlier work
[8] = test system: RbTE cells and HL-60 leukaemia cells; design: method as in Jetten et al, 1987; conditions: ref Jetten et al, 1987; cited from earlier work
HL-60 leukaemia cells = test system: HL-60 leukaemia cells; design: method as in Bollag and Holdener, 1992; Matsushima et al, 1992; conditions: ref Bollag and Holdener, 1992, Matsushima et al; cited from earlier work
[9] = ref Krekels et al, 1995, read-out: IC50 value for inhibition of all-trans-RA catabolism
[10] = read-out: Km value of all-trans-RA catabolism

**Q.** With `CC1=C(/C=C/C(C)=C/C=C/C(C)=C/C(=O)O)C(C)(C)CCC1O` (centres unmarked) [4-hydroxy-RA] as the molecule, how does the “Potency in stimulating gene transcription, times less potent than RA” value (RARs) read?
**A.** The value was 2-10 times.

**Q.** With `Clc1cccc(C(c2ccc3[nH]cnc3c2)n2ccnc2)c1.Clc1cccc(C(c2ccc3[nH]cnc3c2)n2ccnc2)c1.O=C(O)/C=C/C(=O)O.O=C(O)/C=C/C(=O)O.O=C(O)/C=C/C(=O)O` (stereo not drawn) [liarozole-fumarate, 5-[3(chlorophenyl)(lH-imidazole-l-yl)methyl]-IH-benzimidazole (E)-2-butenedioate(2:3)] as the molecule, how does the “Inhibition of induced all-trans-RA catabolism, in words” value (“Inhibition” below) [1] read?
**A.** The value was “potency similar to that of all-trans-RA”.

**Q.** What about the IC50 [2, 9] of the same molecule?
**A.** The IC50 was 260 nM.

**Q.** What about the IC50 (rat liver homogenates; [9]) of the same molecule?
**A.** Its IC50 is 140 nM.

**Q.** Which “Potency in stimulating gene transcription, times less potent than RA” value (RARs) does the source give for `CC1=C(/C=C/C(C)=C/C=C/C(C)=C/C(=O)O)C(C)(C)CCC1=O` [4-keto-RA] here?
**A.** The value was 2-10 times.

**Q.** What does the source list for `CC1=C(/C=C/C(C)=C/C=C/C(C)=C/C(=O)O)C(C)(C)CCC1` [all-trans-RA, All-trans-retinoic acid]?
**A.** Inhibition of induced all-trans-RA catabolism, in words [1]: most active compound; Preincubation period to maximal induction ([3]; 10^-6 M all-trans-RA): 16 h and 16 to 24 h; Time for induction to decrease to the constitutive level after wash-out ([3]; 16 h induction with 10^-6 M all-trans-RA, then wash-out): ≤ 24 h; Onset of induction detectable ([3]; preincubation with all-trans-RA): ≤ 60 min; Km (hamster liver microsomes; ref Roberts et al (1980)): 1.1 µM; Km (hamster liver microsomes; ref Van Wauwe et al (1988)): 12.5 µM; Viability of the cells after preincubation (MCF-7 cells [4]): did not decrease viability; Km [2, 10]: 1.7 µM; Km (rat liver homogenates; [10]): 4.3 µM; Reduction in CRABP-II mRNA (CRABP-II mRNA; 10^-7 M all-trans-RA, 24 h): 20%; Expression of CRABP-I mRNA after treatment (CRABP-II mRNA; CRABP-I mRNA, results not shown): remained low; Km [5]: 0.33 µM

**Q.** For `CC1=C(/C=C/C(C)=C/C=C/C(C)=C/C(=O)O)C(C)(C)CCC1=O` [4-keto-all-trans-RA, 4-Keto-all-trans-retinoic acid], which IC50 [1] is on record?
**A.** The IC50 was 370 nM.

**Q.** What about the “Inhibition” value [1] of the same molecule?
**A.** The value was “activity similar to that of all-trans-RA”.

**Q.** And the “Differentiation-inducing activity relative to all-trans-RA” value (BA-HAN-IC)?
**A.** The value was “significantly weaker”.

**Q.** What about the “Viability of the cells after preincubation” value (“Viability of the cells” below) (MCF-7 cells [6]) of the same molecule?
**A.** The value was “did not decrease viability”.

**Q.** Which results are given for `CC1=C(/C=C/C(C)=C/C=C/C(C)=C\C(=O)O)C(C)(C)CCC1=O` [4-keto-13-cis-RA, 4-keto-13-cis-retinoic acid]?
**A.** IC50 [1]: 6600 nM; Activity in inhibiting all-trans-RA catabolism, times less than all-trans-RA [1]: about 50 times; Viability of the cells after preincubation (MCF-7 cells [6]): did not decrease viability

**Q.** Which results are given for `CC1=C(/C=C/C(C)=C/C=C/C(C)=C/CO)C(C)(C)CCC1` [retinol, Retinol]?
**A.** Inhibition of induced all-trans-RA catabolism, in words [1]: least active natural compound; Viability of the cells after preincubation (MCF-7 cells [4]): did not decrease viability; Activity in inducing differentiation relative to all-trans-RA [7]: approximately 10%

**Q.** Which IC50 [1] does the source give for `CC(C)(C)c1cc(C(=O)/C=C/c2ccc(C(=O)O)cc2)cc(C(C)(C)C)c1` [CH55, (E)-4-[3-(3,5-di-tert-butylphenyl)-3-oxo-l-propenyl]benzoic acid] here?
**A.** Its IC50 is > 10000 nM.

**Q.** What about the “Inhibition” value [1] of the same molecule?
**A.** The value was “did not inhibit”.

**Q.** And the “Viability of the cells” value (MCF-7 cells [4])?
**A.** The value was “did not decrease viability”.

**Q.** What about the “Biological activity, times higher than that of all-trans-RA” value [8] of the same molecule?
**A.** The value was 20-25 times.

**Q.** With `Cc1c2oc3c(C)ccc(C(=O)N[C@@H]4C(=O)N[C@H](C(C)C)C(=O)N5CCC[C@H]5C(=O)N(C)CC(=O)N(C)[C@@H](C(C)C)C(=O)O[C@@H]4C)c3nc-2c(C(=O)N[C@@H]2C(=O)N[C@H](C(C)C)C(=O)N3CCC[C@H]3C(=O)N(C)CC(=O)N(C)[C@@H](C(C)C)C(=O)O[C@@H]2C)c(N)c1=O` [actinomycin D] (I: T[dV]P[Sar][NMeV] / II: T[dV]P[Sar][NMeV]; ester I:1-I:C, II:1-II:C; linker I:N-II:N via Actinocin(9to1)) as the molecule, how does the “RA catabolism (% of control)” value ([3]; actinomycin D 0.1 μg ml-1 with 10^-6 M all-trans-RA) read?
**A.** The value was 14.3 % of control.

**Q.** And the “RA catabolism (% of control)” value ([3]; actinomycin D 1 μg ml-1 with 10^-6 M all-trans-RA)?
**A.** Its value is 11.7 % of control.

**Q.** Which “Differentiation-inducing activity relative to all-trans-RA” value (BA-HAN-IC) does the source give for `CC1=C(/C=C/C(C)=C/C=C/C(C)=C/C(=O)O)C(C)(C)CCC1O` (stereo not drawn) [4-hydroxy-all-trans-RA] here?
**A.** Its value is “significantly weaker”.

**Q.** Which results are given for `CC1=C(/C=C/C(C)=C\C=C\C(C)=C\C(=O)O)C(C)(C)CCC1` [9-cis-RA, 9-cis-retinoic acid]?
**A.** IC50 ([1]; Homo sapiens, MCF7): 1890 nM; Activity in inhibiting all-trans-RA catabolism, times less than all-trans-RA [1]: about 15 times; Viability of the cells after preincubation (MCF-7 cells [4]): did not decrease viability; Potency in inducing differentiation relative to all-trans-RA (HL-60 leukaemia cells): equipotent to 10-fold as active

**Q.** With `CC1=C(/C=C/C(C)=C/C=C/C(C)=C\C(=O)O)C(C)(C)CCC1` [13-cis-RA, 13-cis-retinoic acid] as the molecule, how does the “Activity in inhibiting all-trans-RA catabolism, times less than all-trans-RA” value [1] read?
**A.** Its value is 5 times.

**Q.** And the “Viability of the cells” value (MCF-7 cells [4])?
**A.** Its value is “did not decrease viability”.

**Q.** And the “Potency in inducing differentiation relative to all-trans-RA” value (HL-60 leukaemia cells)?
**A.** The value was “equipotent”.
